Ends that are not written are not given here.
What was measured:
[1] = tested on: ovalbumin sensitised BALB/c mice; settings: mouse, in vivo
[2] = tested on: mice infected with H3N2 influenza (A/x31) and challenged with poly I:C; assay: Model of ARDS associated to influenza A virus (IAV) infection with Poly I:C challenge, BAL cells, cytokines, lung viral titre; type: in vivo; settings: for Lymphocyte infiltration / Macrophage infiltration / Neutrophil infiltration: SEQ ID NO:1 80-800 μg/Kg iv q.d., Dex 10 mg/kg ip q.d.; for BAL Lymphocytes / BAL Macrophages / BAL Neutrophils: IAV/Poly I:C, 48 hrs after Poly I:C
Procedure: Mice were infected intranasally with a H3N2 strain of influenza (A/x31; 1×10^3 pfu). Three days after infection (time of peak viral load in the lung), animals received a dose of the viral mimetic polyinosinic-polycytidylic acid (poly I:C) or vehicle (PBS). Initially, dose response and time course studies with Poly I:C were done to establish conditions to show exacerbated lung inflammation after viral challenge (30 μg/animal and 48 hrs after Poly I:C challenge, respectively). SEQ ID NO:1 (80-800 μg/Kg) or vehicle were administered q.d. intravenously, 15 min before Poly I:C and 24 hrs later. Positive control Dexamethasone (Dex) was administered q.d. intraperitoneally (10 mg/kg) 1 hr before poly I:C challenge and 24 hrs later. 48 hrs after Poly I:C challenge, bronchoalveolar lavage (BAL) fluid was collected for differential cell counts and to measure cytokines using a multiplex immunoassay. Lung tissue was also collected to determine the viral titre.

[3] = tested on: dendritic cells from CD14+ monocytes of healthy donors; type: cell-based, human; settings: 400 ng/mL + LPS/IFNγ
[4] = tested on: animal model of allergic airway inflammation; settings: disclosed in WO2009/106819; cited from earlier work
[5] = tested on: HDM-induced pulmonary inflammation in Balb/C mice; assay: House dust mite (HDM)-induced pulmonary inflammation, 3 week i.n. HDM sensitisation model, BAL cell influx and cytokines; type: in vivo
Procedure: The objective of the study was to investigate the inhibitory effects of 3 different concentrations of the peptides in a saline solution on house dust mite (HDM)-induced pulmonary inflammation in Balb/C mice using a 3 week intranasal (i.n.) HDM sensitisation model. Results are shown for SEQ ID NO: 1. This study also looked at time point effects of SEQ ID NO: 1; in addition to 7 day post HDM challenge, a further time point, 4 h post a second HDM challenge (14 days after the first HDM challenge), was investigated to assess the effects of SEQ ID NO: 1 on remission of the allergic response.
A 3 week sensitisation and challenge model was applied where n=90 female Balb/C mice of approximately 6-8 weeks of age, approximately 20-25 g at start of study were used.
Following 11 days' acclimatisation all mice received 25 μg (total protein) HDM delivered i.n. 5 days/week for 3 weeks. HDM sensitisation was carried out each day of dosing and all intranasal dosing was performed where the mice were lightly anaesthetised using isoflurane.
Two weeks after the final HDM sensitisation dose all mice received a single 50 μL i.n. dose of a saline solution of the peptide or saline (0.9% w/v Sodium Chloride) vehicle solution. For SEQ ID NO: 1, dose solutions were 0.02 μg/kg, 0.2 μg/kg and 2 μg/kg. 15 minutes post peptide or saline vehicle dose all mice received a single 50 uL challenge administered i.n. of saline (0.9% w/v Sodium Chloride) or 100 μg HDM.
Some groups of animals received a second 50 μL i.n. administered dose of either saline or HDM 100 μg dose four weeks post sensitisation. Animals were then euthanised 4 hrs post second challenge (corresponding to 14 days post dosing).
The lungs were lavaged via the trachea with 1 mL of BAL (bronchoalveolar lavage) fluid. Samples were placed on wet ice (4° C.) and a differential cell count using a Sysmex XT2000i vet cell analyser was performed before the BAL sample was centrifuged at 1300 rcf for 7 min. A 200 μL BAL supernatant sample was put in a polypropylene U bottom 96 well plate and frozen at −20° C. for subsequent cytokine analysis using a standard MSD protocol.
Data analysis was performed using Graphpad PRISM 6. The statistical tests applied to determine statistical significance were analysis of variance (ANOVA) followed by a post-hoc test or an unpaired T-test.

[6] = tested on: THP-1 differentiated macrophages; assay: IL-10 release from LPS stimulated macrophages (alphaLISA); type: cell-based, human; settings: 1 nM; top LPS doses 1-10 μg/mL; 6 hours after LPS stimulation
Procedure: THP-1 monocytic human cells were differentiated into macrophages with 50 nM phorbol myristate acetate for 48 hrs on a 96 well plate (100K cells/well).
Macrophages were stimulated with increasing concentrations of bacterial lipopolysaccharide (LPS 10^−6-10 μg/mL) in the presence or absence of SEQ ID NO:1 (1 nM). 30 μL of cell media was sampled at 6 hours after LPS stimulation and an IL-10 alphaLISA was run to measure the release of IL-10.

[7] = 48 hrs after Poly I:C challenge
[8] = 2 μg/kg i.n. single dose, 7 day time point, compared to saline/HDM
[9] = 2 μg/kg i.n. single dose, 14 day time point, 4 hrs post second HDM challenge, compared to saline/HDM
[10] = 2 μg/kg i.n., 14 days time point, compared to saline/HDM
[11] = 48 hrs after Poly I:C challenge, multiplex immunoassay

In the case of DGSVVVNKVSEL-NH2 [SEQ ID NO:3], the BAL eosinophil number [1] is reported as “significantly reduced” and the “BAL total number of cells” value [1] is reported as “significantly reduced”.

With C[C@@H]1C[C@H]2[C@@H]3CCC4=CC(=O)C=C[C@]4(C)[C@@]3(F)[C@@H](O)C[C@]2(C)[C@@]1(O)C(=O)CO [Dex, Dexamethasone, reference compound] the Lymphocyte infiltration [2, 7] was “no effect”, the Macrophage infiltration [2, 7] was “no effect” and the Neutrophil infiltration [2, 7] was “no effect”. For the same compound, the “BAL Lymphocytes” value ([2]; 10 mg/kg ip) was 9.4 ± 0.7 ×10^4/mL, the “BAL Macrophages” value ([2]; 10 mg/kg ip) was 40.90 ± 0.2 ×10^4/mL and the “BAL Neutrophils” value ([2]; 10 mg/kg ip) was 35.7 ± 2.6 ×10^4/mL.

For “DGSVVVNKVSELPAGHGLNVNTLSYGDLAAD-OH [SEQ ID NO:1]”, the “IL-10 gene expression (LPS/IFNγ suppression)” value [3] is given as “significantly attenuate the LPS/IFNγ suppression of the IL-10 gene”, the Recruitment of eosinophils [4] is given as “significantly reduce the recruitment of eosinophils” and the “BAL level of eosinophils” value [5, 8] is given as “decreased level of neutrophils and eosinophils compared to saline/HDM although not statistically significant”. The “BAL level of neutrophils” value [5, 8] was “decreased level of neutrophils and eosinophils compared to saline/HDM although not statistically significant”, the “BAL level of eosinophils” value [5, 9] was “significantly decreased level” and the “BAL level of lymphocytes” value [5, 9] was “significantly decreased level”. For the same compound, the “BAL level of neutrophils” value [5, 9] was “significantly decreased level”, the “BAL level of IL-4” value [5, 10] was “significant inhibition” and the “BAL level of IL-5” value [5, 10] was “significant inhibition”. For the same compound, the “BAL level of IL-13” value [5, 10] was “significant inhibition”, the “BAL release of anti inflammatory cytokine IL-10” value ([5]; 0.02, 0.2, 2 μg/kg i.n., 7 days time point, compared to saline/HDM) was “significant dose response release” and the BAL infiltrated macrophages ([5]; SEQ ID NO:1 treated groups (0.02-2 μg/kg i.n.), 7 day time point) was “trend to an increase of infiltrated macrophages”. The “Release of IL-10” value [6] was “potentiated the release of IL-10”, the “Circulating levels of peptide” value [1] was “no longer detectable” and the “Intensity of the inflammatory response (BAL total cells, eosinophils)” value [1] was “significantly reduced”. The “Recruitment of eosinophils after OVA re-challenge” value [1] was “efficient in inhibiting the recruitment of eosinophils”, the Lung viral titre [2, 7] was “no significant effect” and the Lymphocyte infiltration [2, 7] was “significantly and dose dependently reduced”. The Macrophage infiltration [2, 7] was “significantly and dose dependently reduced”, the Neutrophil infiltration [2, 7] was “significantly and dose dependently reduced” and the “BAL G-CSF” value [2, 11] was “significant suppression”. For the same compound, the “BAL GM-CSF” value [2, 11] was “significant suppression”, the “BAL IFN-γ” value [2, 11] was “significant suppression” and the “BAL IL-1γ” value [2, 11] was “significant suppression”. The “BAL IL-6” value [2, 11] was “significant suppression”, the “BAL IL-10” value [2, 11] was “significant suppression” and the “BAL IL-17” value [2, 11] was “significant suppression”. For the same compound, the “BAL KC/IL-8” value [2, 11] was “significant suppression”, the “BAL MCP-1” value [2, 11] was “significant suppression” and the “BAL MIP-1α” value [2, 11] was “significant suppression”. The “BAL MIP-3α” value [2, 11] was “significant suppression”, the “BAL TNF-α” value [2, 11] was “significant suppression” and the “BAL Lymphocytes” value ([2]; 80μ/kg iv) was 7.4 ± 0.5 ×10^4/mL. For the same compound, the “BAL Macrophages” value ([2]; 80μ/kg iv) was 40.3 ± 1.6 ×10^4/mL, the “BAL Neutrophils” value ([2]; 80μ/kg iv) was 30 ± 2.2 ×10^4/mL and the “BAL Lymphocytes” value ([2]; 800μ/kg iv) was 4.7 ± 0.5 ×10^4/mL. The “BAL Macrophages” value ([2]; 800μ/kg iv) was 24.1 ± 1.6 ×10^4/mL and the “BAL Neutrophils” value ([2]; 800μ/kg iv) was 15.3 ± 2.4 ×10^4/mL.
